Like-named read-outs stand apart in the source and are kept apart here.
Molecular target: Human complement C1s enzyme (Homo sapiens (Human), UniProt P09871)
Assay: Human C1s enzyme assay
Type: biochemical
Settings: read-out: IC50 (Stars)
Method in brief: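 Purified serum-derived human C1s (1.16 nM final) preincubated 5 min at room temperature with compound in 50 mM Tris, 1 M NaCl, pH 7.5. Z-L-Lys-SBzl thioester substrate and DTNB added (100 μM each, final); A405 read every 30 s for 30 min. IC50 from nonlinear regression of reaction rates against compound concentration.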

[1] = Human C1s enzyme assay of Example 3
[2] = Human complement C1s enzyme 1.16 nM, substrate Z-L-Lys-SBzl 100 μM, assay of Example 3

Human complement C1s enzyme, sequence (P09871 438-688 limits assumed): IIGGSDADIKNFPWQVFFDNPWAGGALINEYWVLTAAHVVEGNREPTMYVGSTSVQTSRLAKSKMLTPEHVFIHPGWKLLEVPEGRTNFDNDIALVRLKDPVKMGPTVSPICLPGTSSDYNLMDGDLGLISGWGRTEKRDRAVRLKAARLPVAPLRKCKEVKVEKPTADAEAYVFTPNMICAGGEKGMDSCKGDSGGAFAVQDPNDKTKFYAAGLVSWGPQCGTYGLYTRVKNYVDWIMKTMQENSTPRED
Human complement C1s enzyme, sequence (P09871 16-437 partner limits assumed): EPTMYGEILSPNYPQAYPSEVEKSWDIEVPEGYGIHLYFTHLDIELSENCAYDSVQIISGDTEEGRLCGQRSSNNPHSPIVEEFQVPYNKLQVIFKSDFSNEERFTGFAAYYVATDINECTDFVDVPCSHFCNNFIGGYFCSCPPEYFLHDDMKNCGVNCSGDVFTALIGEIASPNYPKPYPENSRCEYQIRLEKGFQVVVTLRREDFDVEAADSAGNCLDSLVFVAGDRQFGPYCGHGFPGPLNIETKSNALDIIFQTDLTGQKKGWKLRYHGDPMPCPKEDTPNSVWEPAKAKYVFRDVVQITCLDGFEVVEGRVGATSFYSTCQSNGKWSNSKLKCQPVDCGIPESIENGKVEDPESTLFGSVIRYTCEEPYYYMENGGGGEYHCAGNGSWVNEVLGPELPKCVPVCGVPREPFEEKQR

Row | IC50 [1] | IC50 [2] | SMILES
1 | < 100 nM |  | C[C@@H](NC(=O)[C@@H]1C[C@@H](Oc2ccccc2)CN1C(=O)CNC(=O)c1ccc(Oc2ccc(F)cc2)cc1)c1cc(C(=N)N)cs1 [Compound 37, (2S,4R)—N—((R)-1-(4-carbamimidoylthiophen-2-yl)ethyl)-1-((4-(4-fluorophenoxy)benzoyl)glycyl)-4-phenoxypyrrolidine-2-carboxamide]
2 | > 1000 nM |  | Nc1ncccc1-c1csc(CNC(=O)[C@@H]2CC3(CN2C(=O)CNC(=O)c2ccc(Oc4ccc(F)cc4)cc2)OCCO3)c1 [Compound 122, (S)—N-((4-(2-aminopyridin-3-yl)thiophen-2-yl)methyl)-7-((4-(4-fluorophenoxy)benzoyl)glycyl)-1,4-dioxa-7-azaspiro[4.4]nonane-8-carboxamide]
3 |  | 100 to 1000 nM | C[C@@]12C[C@@H]1N(C(=O)CNC(=O)c1ccc(Oc3ccccc3)cc1)[C@H](C(=O)NCc1cc3c(s1)C(N)=NCC3)C2 [Compound 293, (1S,3S,5S)—N-((7-amino-4,5-dihydrothieno[2,3-c]pyridin-2-yl)methyl)-5-methyl-2-((4-phenoxybenzoyl)glycyl)-2-azabicyclo[3.1.0]hexane-3-carboxamide]
4 |  | < 100 nM | C=C1C[C@@H](C(=O)N[C@H](C)c2cc(C(=N)N)cs2)N(C(=O)CNC(=O)c2ccc3c(c2)-c2ccccc2C3(F)F)C1 [Compound 203, (S)—N—((R)-1-(4-carbamimidoylthiophen-2-yl)ethyl)-1-((9,9-difluoro-9H-fluorene-3-carbonyl)glycyl)-4-methylenepyrrolidine-2-carboxamide]
5 |  | < 100 nM | C[C@@H](NC(=O)[C@@H]1CC2(CN1C(=O)CNC(=O)c1ccc(O)cc1)OCCO2)c1cc(C(=N)N)cs1 [Compound 272, (S)—N—((R)-1-(4-carbamimidoylthiophen-2-yl)ethyl)-7-((4-hydroxybenzoyl)glycyl)-1,4-dioxa-7-azaspiro[4.4]nonane-8-carboxamide]
6 | < 100 nM |  | C[C@@H](NC(=O)[C@@H]1C[C@@H](OC(F)(F)F)CN1C(=O)CNC(=O)c1ccc2c(c1)-c1ccccc1C2(F)F)c1cc(C(=N)N)cs1 [Compound 159, (2S,4R)—N—((R)-1-(4-carbamimidoylthiophen-2-yl)ethyl)-1-((9,9-difluoro-9H-fluorene-3-carbonyl)glycyl)-4-(trifluoromethoxy)pyrrolidine-2-carboxamide]
7 | < 100 nM |  | C[C@@H](NC(=O)[C@@H]1C[C@@H](OC(F)F)CN1C(=O)CNC(=O)c1ccc2c(c1)-c1ccccc1C2(C)C)c1cc(C(=N)N)cs1 [Compound 132, (2S,4R)—N—((R)-1-(4-carbamimidoylthiophen-2-yl)ethyl)-4-(difluoromethoxy)-1-((9,9-dimethyl-9H-fluorene-3-carbonyl)glycyl)pyrrolidine-2-carboxamide]
8 | < 100 nM |  | N=C(N)c1csc(CNC(=O)[C@@H]2C[C@@H](OC(F)F)CN2C(=O)CNC(=O)c2ccc3c(c2)-c2ccccc2C3(F)F)c1 [Compound 50, (2S,4R)—N-((4-carbamimidoylthiophen-2-yl)methyl)-1-((9,9-difluoro-9H-fluorene-3-carbonyl)glycyl)-4-(difluoromethoxy)pyrrolidine-2-carboxamide]
9 |  | < 100 nM | N=C(N)c1csc(CNC(=O)[C@@H]2CC3(CN2C(=O)CNC(=O)c2ccc(-c4ccccc4)o2)OCCO3)c1 [Compound 297, (S)—N-((4-carbamimidoylthiophen-2-yl)methyl)-7-((5-phenylfuran-2-carbonyl)glycyl)-1,4-dioxa-7-azaspiro[4.4]nonane-8-carboxamide]
10 |  | < 100 nM | C[C@@H](NC(=O)[C@@H]1C[C@@](C)(F)CN1C(=O)CNC(=O)c1ccc2c(c1)-c1ccccc1C2(F)F)c1cc(C(=N)N)cs1 [Compound 268, (2S,4R)—N—((R)-1-(4-carbamimidoylthiophen-2-yl)ethyl)-1-((9,9-difluoro-9H-fluorene-3-carbonyl)glycyl)-4-fluoro-4-methylpyrrolidine-2-carboxamide]
11 | > 1000 nM |  | C[C@@H](NC(=O)[C@@H]1CC2(CN1C(=O)CNC(=O)c1ccc3c(c1)-c1ccccc1C3(F)F)OCCO2)c1cc(-c2cnc(N)nc2)cs1 [Compound 100, (S)—N—((R)-1-(4-(2-aminopyrimidin-5-yl)thiophen-2-yl)ethyl)-7-((9,9-difluoro-9H-fluorene-3-carbonyl)glycyl)-1,4-dioxa-7-azaspiro[4.4]nonane-8-carboxamide]
12 |  | < 100 nM | C[C@@H](NC(=O)[C@@H]1C[C@@H](S(C)(=O)=O)CN1C(=O)CNC(=O)c1ccc2c(c1)Oc1ccccc1S2)c1cc(C(=N)N)cs1 [Compound 333, (2S,4R)—N—((R)-1-(4-carbamimidoylthiophen-2-yl)ethyl)-4-(methylsulfonyl)-1-((phenoxathiine-3-carbonyl)glycyl)pyrrolidine-2-carboxamide]
13 | < 100 nM |  | C[C@@H](NC(=O)[C@@H]1CC2(CN1C(=O)CNC(=O)c1ccc3c(c1)-c1ccc(F)cc1C3(F)F)OCCO2)c1cc(C(=N)N)cs1 [Compound 193, (8S)—N-[(1R)-1-(4-carbamimidoylthiophen-2-yl)ethyl]-7-{2-[(7,9,9-trifluorofluoren-3-yl)formamido]acetyl}-1,4-dioxa-7-azaspiro[4.4]nonane-8-carboxamide]
14 | < 100 nM |  | C[C@@H](NC(=O)[C@@H]1C[C@@H](S(C)(=O)=O)CN1C(=O)CNC(=O)c1ccc2c(c1)-c1ccccc1C2(F)F)c1cc(C(=N)N)cs1 [Compound 61, (2S,4R)—N—((R)-1-(4-carbamimidoylthiophen-2-yl)ethyl)-1-((9,9-difluoro-9H-fluorene-3-carbonyl)glycyl)-4-(methylsulfonyl)pyrrolidine-2-carboxamide]
15 | < 100 nM |  | N=C(N)c1cc(CNC(=O)[C@@H]2CC3(CN2C(=O)CNC(=O)c2ccc(-c4ccccc4)cc2)OCCO3)cs1 [Compound 147, (S)-7-(([1,1′-biphenyl]-4-carbonyl)glycyl)-N-((5-carbamimidoylthiophen-3-yl)methyl)-1,4-dioxa-7-azaspiro[4.4]nonane-8-carboxamide]
16 |  | < 100 nM | N=C(N)c1csc(CNC(=O)[C@@H]2CC3(CN2C(=O)CNC(=O)c2ccc(-c4ccc(C(=O)O)cc4)cc2)OCCO3)c1 [Compound 214, (S)-4′-((2-(8-(((4-carbamimidoylthiophen-2-yl)methyl)carbamoyl)-1,4-dioxa-7-azaspiro[4.4]nonan-7-yl)-2-oxoethyl)carbamoyl)-[1,1′-biphenyl]-4-carboxylic acid]
17 | < 100 nM |  | CC1c2ccccc2-c2cc(C(=O)NCC(=O)N3CC4(C[C@H]3C(=O)N[C@H](C)c3cc(C(=N)N)cs3)OCCO4)ccc21 (stereo partly drawn) [Compound 99, (8S)—N-[(1R)-1-(4-carbamimidoylthiophen-2-yl)ethyl]-7-{2-[(9-methyl-9H-fluoren-3-yl)formamido]acetyl}-1,4-dioxa-7-azaspiro[4.4]nonane-8-carboxamide]
18 | < 100 nM |  | C[C@@H](NC(=O)[C@@H]1C[C@@H](OC(F)F)CN1C(=O)CNC(=O)c1ccc(Oc2ccc(C#N)cc2)cc1)c1cc(C(=N)N)cs1 [Compound 49, (2S,4R)—N—((R)-1-(4-carbamimidoylthiophen-2-yl)ethyl)-1-((4-(4-cyanophenoxy)benzoyl)glycyl)-4-(difluoromethoxy)pyrrolidine-2-carboxamide]
19 | < 100 nM |  | N=C(N)c1csc(CNC(=O)[C@@H]2C[C@@H](OC(F)F)CN2C(=O)CNC(=O)c2ccc(Oc3ccc(F)cc3)cc2)c1 [Compound 3, (2S,4R)—N-((4-carbamimidoylthiophen-2-yl)methyl)-4-(difluoromethoxy)-1-((4-(4-fluorophenoxy)benzoyl)glycyl)pyrrolidine-2-carboxamide]
20 | < 100 nM |  | C[C@@H](NC(=O)[C@@H]1C[C@](F)(CN(C)C)CN1C(=O)CNC(=O)c1ccc2c(c1)-c1ccccc1C2(F)F)c1cc(C(=N)N)cs1 [Compound 36, (2S,4S)—N—((R)-1-(4-carbamimidoylthiophen-2-yl)ethyl)-1-((9,9-difluoro-9H-fluorene-3-carbonyl)glycyl)-4-((dimethylamino)methyl)-4-fluoropyrrolidine-2-carboxamide]
21 | < 100 nM |  | CC(NC(=O)[C@@H]1C[C@@H](Oc2ccccc2)CN1C(=O)CNC(=O)c1ccc2c(c1)-c1ccccc1C2(F)F)c1cc(C(=N)N)cs1 (stereo in doubt) [Compound 51, (2S,4R)—N—((S)-1-(4-carbamimidoylthiophen-2-yl)ethyl)-1-((9,9-difluoro-9H-fluorene-3-carbonyl)glycyl)-4-phenoxypyrrolidine-2-carboxamide]
22 | < 100 nM |  | C[C@@H]1C[C@@H](C(=O)N[C@H](C)c2cc(C(=N)N)cs2)N(C(=O)CNC(=O)c2ccc(Oc3ccc(F)cc3)cc2)C1 [Compound 63, (2S,4R)—N—((R)-1-(4-carbamimidoylthiophen-2-yl)ethyl)-1-((4-(4-fluorophenoxy)benzoyl)glycyl)-4-methylpyrrolidine-2-carboxamide]
23 | < 100 nM |  | Cc1ccc2c(c1)C(F)(F)c1ccc(C(=O)NCC(=O)N3CC4(C[C@H]3C(=O)N[C@H](C)c3cc(C(=N)N)cs3)OCCO4)cc1-2 [Compound 190, (S)—N—((R)-1-(4-carbamimidoylthiophen-2-yl)ethyl)-7-((9,9-difluoro-7-methyl-9H-fluorene-3-carbonyl)glycyl)-1,4-dioxa-7-azaspiro[4.4]nonane-8-carboxamide]
24 | < 100 nM |  | N=C(N)c1csc(CNC(=O)[C@@H]2CC3(CN2C(=O)CNC(=O)c2ccc(-c4cc5ccccc5s4)cc2)OCCO3)c1 [Compound 145]

Row | SMILES | IC50 [1] | IC50 [2]
25 | C[C@@H](NC(=O)[C@@H]1CC2(CN1C(=O)CNC(=O)c1ccc3c(c1)-c1ccccc1C3(F)F)OCCO2)c1cc(/C(N)=N\C(=O)Oc2ccccc2)cs1 [Compound 149, phenyl ((E)-amino(5-((R)-1-((S)-7-((9,9-difluoro-9H-fluorene-3-carbonyl)glycyl)-1,4-dioxa-7-azaspiro[4.4]nonane-8-carboxamido)ethyl)thiophen-3-yl)methylene)carbamate] | < 100 nM | 
